In PMC9466626, “Discovery of new 1H-pyrazolo[3,4-d]pyrimidine derivatives as anticancer agents targeting EGFR^WT and EGFR^T790M” (Journal of Enzyme Inhibition and Medicinal Chemistry, 2022):
Read-outs that look alike come from different tables or passages of the source.

What was measured:
A549 = experiment: In vitro anti-proliferative MTT assay, A549; format: cell-based, human; conditions: for IC50: Homo sapiens; for HillSlope (best-fit value), A549 / LogIC50 (best-fit value), A549: supplement IC50 graph
Description: These two cell lines were selected in this test due to the overexpression of EGFR in human lung and colon cancer cell lines[48]^,[49]. The tested cells were reported to have a high expression level of EGFR. […]
(§1) 1.1. In vitro antiproliferative activities
The in vitro antiproliferative activities of all the synthesized compounds against two human […]
evaluated quantitatively as described in the literature, using MTT assay protocol . two […]
proliferative activity was assessed quantitatively as follows.
(§2) Human cancer cell lines were dropped in 96 -well plates at a density of 3-8 × 10^3 cells/well.
Next, the wells were incubated for 12 h in a 5% CO 2 incubator at 37 °C. Then, for each well, the growth medium was exchanged with 0.1 ml of fresh medium containing graded concentrations of the test compounds to be or equal DMSO and incubated for two days. Then 10 μl MTT solution ([…]) was added to each well, and the cells were incubated for additional 4 h. The crystals of MTT-formazan were dissolved in 100 μl of DMSO; the absorbance of each well was measured at 490 nm using an automatic ELISA reader system (TECAN, CHE). The IC 50 values were calculated using the nonlinear regression fitting models (Graph Pad, Prism Version 5). The data represented the mean of three independent experiments in triplicate and were expressed as means ± SD. The […]
(§3) The results were expressed as growth inhibitory concentration (IC50) values and […]

HCT-116 = experiment: In vitro anti-proliferative MTT assay, HCT-116; format: cell-based, human; conditions: for IC50: Homo sapiens, HCT-116, mean of three experiments, read-out: In vitro cytotoxicity IC50, HCT-116; for IC50 / anti-proliferative activity against HCT-116 in words: MTT; for HillSlope (best-fit value), HCT-116 / LogIC50 (best-fit value), HCT-116: supplement IC50 graph
Description: The cytotoxic activities of the synthesised compounds were assessed against two human cancer cell lines (lung, A549) and (colon HCT-116) using an MTT assay. These two cell lines were selected in this test due to the overexpression of EGFR in human lung and colon cancer cell lines[48]^,[49]. The tested cells were reported to have a high expression level of EGFR.
In vitro cytotoxicity was carried out for the synthesised compounds against A549, HCT-116, and WI-38 cell lines using the MTT assay protocol[52–55] as described in Supplementary data. […]
as §1
The in vitro antiproliferative activities of all the synthesized compounds against two human tumor cell lines namely, (lung, A549) and (colon HCT-116) and one normal cell line (WI-38) were evaluated quantitatively as described in the literature, using MTT assay protocol . two commercially available drugs (erlotinib) were used in this test as positive controls. The anti-proliferative activity was assessed quantitatively as follows.
as §2
Next, the wells were incubated for 12 h in a 5% CO 2 incubator at 37 °C. Then, for each well, the growth medium was exchanged with 0.1 ml of fresh medium containing graded concentrations of the test compounds to be or equal DMSO and incubated for two days. Then 10 μl MTT solution ([…]) was added to each well, and the cells were incubated for additional 4 h. The crystals of MTT-formazan were dissolved in 100 μl of DMSO; the absorbance of each well was measured at 490 nm using an automatic ELISA reader system (TECAN, CHE). The IC 50 values were calculated using the nonlinear regression fitting models (Graph Pad, Prism Version 5). The data represented the mean of three independent experiments in triplicate and were expressed as means ± SD. The IC50 value was defined as the concentration at which 50% of the cells could survive.
as §3

EGFR^WT = target: T1, EGFR^WT (Homo sapiens, UniProt P00533); experiment: EGFR^WT kinase inhibitory assay (HTRF); format: biochemical
T1 construct: purchased Sigma
Description: In vitro EGFR inhibitory activity was assessed using a Homogeneous time-resolved fluorescence (HTRF) assay[56] as described in Supplementary data.
4.1.1. EGFRWT and EGFRT790M kinase inhibitory assay […]
against four cancer cell lines were further examined for their inhibitory activities against both […]
Homogeneous time resolved fluorescence (HTRF) assay was applied in this test. EGFRWT, EGFRT790M (Sigma). firstly, the EGFRWT and/or EGFRT790M and their substrates were incubated with the tested compounds in enzymatic buffer for 5 min. […]
the enzymatic reaction. The assay was conducted for 30 min at room temperature. The reaction was stopped by addition of detection reagents which contain EDTA. The detection step continued […]
experiments were performed for each concentration. […]

WI-38 = experiment: In vitro cytotoxicity against normal cells (MTT), WI-38; conditions: supplement graph
Description: (§4) Next, the wells were incubated for 12 h in a 5% CO 2 incubator at 37 °C. Then, for each well, the growth medium was exchanged with 0.1 ml of fresh medium containing graded concentrations of the test compounds to be or equal DMSO and incubated for two days. Then 10 μl MTT solution (5 μg/ml) was added to each well, and the cells were incubated for additional 4 h. The crystals of MTT-formazan were dissolved in 100 μl of DMSO; the absorbance of each well was measured at 490 nm using an automatic ELISA reader system (TECAN, CHE). The IC 50 values were calculated using the nonlinear regression fitting models (Graph Pad, Prism Version 5). The data represented the mean of three independent experiments in triplicate and were expressed as means ± SD.

in vitro = conditions: human, WI-38 normal cells
Description: as §4

[1] = A549, MTT, mean of three experiments, read-out: In vitro cytotoxicity IC50, A549
[2] = HTRF, mean of three experiments, read-out: EGFR^WT IC50
[3] = supplement graph, axis Log (nM)
[4] = supplement graph, axis Log (nM), read-out: IC50 (best-fit value of graph), EGFR inhibition

T1 sequence (P00533 25-1210): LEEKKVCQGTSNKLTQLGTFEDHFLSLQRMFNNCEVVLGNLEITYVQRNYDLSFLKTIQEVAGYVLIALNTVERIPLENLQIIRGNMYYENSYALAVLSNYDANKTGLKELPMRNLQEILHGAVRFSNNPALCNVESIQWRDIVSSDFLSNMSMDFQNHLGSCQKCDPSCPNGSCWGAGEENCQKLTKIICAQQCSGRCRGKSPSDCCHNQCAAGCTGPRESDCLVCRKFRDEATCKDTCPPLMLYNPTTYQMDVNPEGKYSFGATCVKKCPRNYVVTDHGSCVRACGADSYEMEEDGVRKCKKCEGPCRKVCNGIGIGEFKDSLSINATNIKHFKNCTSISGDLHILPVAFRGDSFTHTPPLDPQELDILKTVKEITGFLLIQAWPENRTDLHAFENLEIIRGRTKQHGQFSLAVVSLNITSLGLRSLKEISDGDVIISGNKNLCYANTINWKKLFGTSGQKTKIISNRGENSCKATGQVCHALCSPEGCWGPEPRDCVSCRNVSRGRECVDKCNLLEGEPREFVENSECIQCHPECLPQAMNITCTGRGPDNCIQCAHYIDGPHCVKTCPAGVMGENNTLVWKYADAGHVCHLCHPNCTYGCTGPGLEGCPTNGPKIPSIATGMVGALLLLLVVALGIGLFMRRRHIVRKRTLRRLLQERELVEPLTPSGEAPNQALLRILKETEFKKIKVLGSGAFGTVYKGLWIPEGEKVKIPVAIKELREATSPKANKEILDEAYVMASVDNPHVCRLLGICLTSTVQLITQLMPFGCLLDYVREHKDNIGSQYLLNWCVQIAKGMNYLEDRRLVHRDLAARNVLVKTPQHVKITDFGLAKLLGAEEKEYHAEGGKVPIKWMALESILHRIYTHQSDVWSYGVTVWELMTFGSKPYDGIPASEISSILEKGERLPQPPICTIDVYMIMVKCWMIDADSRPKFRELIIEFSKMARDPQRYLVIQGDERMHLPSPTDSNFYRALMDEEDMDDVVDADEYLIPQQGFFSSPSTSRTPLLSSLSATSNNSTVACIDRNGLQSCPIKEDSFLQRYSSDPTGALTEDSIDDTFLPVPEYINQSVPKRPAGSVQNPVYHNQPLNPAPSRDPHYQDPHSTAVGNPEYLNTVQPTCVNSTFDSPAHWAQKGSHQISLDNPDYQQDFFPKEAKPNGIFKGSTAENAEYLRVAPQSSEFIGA

## CCNc1nc(Nc2ccccc2)nc2c1cnn2-c1ccccc1 [Compound 7a, N4-Ethyl-N6,1-diphenyl-1H-pyrazolo[3,4-d]pyrimidine-4,6-diamine]
A549; [1]
  IC50: 64.4 µM
A549
  HillSlope (best-fit value), A549: -0.4567
  LogIC50 (best-fit value), A549: 1.809
HCT-116
  IC50: 29.6 µM
  anti-proliferative activity against HCT-116 in words: moderate
  HillSlope (best-fit value), HCT-116: -0.4339
  LogIC50 (best-fit value), HCT-116: 1.472

## CCCNc1nc(Nc2ccccc2)nc2c1cnn2-c1ccccc1 [Compound 7b, N4-Propyl-N6,1-diphenyl-1H-pyrazolo[3,4-d]pyrimidine-4,6-diamine]
A549; [1]
  IC50: 67.4 µM
A549
  HillSlope (best-fit value), A549: -0.4700
  LogIC50 (best-fit value), A549: 1.829
HCT-116
  IC50: 31.5 µM
  anti-proliferative activity against HCT-116 in words: moderate
  HillSlope (best-fit value), HCT-116: -0.4549
  LogIC50 (best-fit value), HCT-116: 1.498

## c1ccc(Nc2nc(Nc3ccccc3)c3cnn(-c4ccccc4)c3n2)cc1 [Compound 8, N4,N6,1-Triphenyl-1H-pyrazolo[3,4-d]pyrimidine-4,6-diamine]
A549; [1]
  IC50: 16.8 µM
A549
  HillSlope (best-fit value), A549: -0.3605
  LogIC50 (best-fit value), A549: 1.224
EGFR^WT; [2]
  IC50: 26 nM
EGFR^WT; supplement graph
  HillSlope (best-fit value), EGFR inhibition: -0.3385
EGFR^WT; [3]
  LogIC50 (best-fit value), EGFR inhibition: 1.415
EGFR^WT; [4]
  IC50: 26 nM
HCT-116
  IC50: 24.2 µM
  HillSlope (best-fit value), HCT-116: -0.4231
  LogIC50 (best-fit value), HCT-116: 1.383

## c1ccc(Nc2nc(NC3CCCCC3)c3cnn(-c4ccccc4)c3n2)cc1 [Compound 9, N4-Cyclohexyl-N6,1-diphenyl-1H-pyrazolo[3,4-d]pyrimidine-4,6-diamine]
A549; [1]
  IC50: 29.1 µM
A549
  HillSlope (best-fit value), A549: -0.3708
  LogIC50 (best-fit value), A549: 1.463
HCT-116
  IC50: 39.4 µM
  HillSlope (best-fit value), HCT-116: -0.3946
  LogIC50 (best-fit value), HCT-116: 1.595

## NNc1nc(Nc2ccccc2)nc2c1cnn2-c1ccccc1 [Compound 10, 4-Hydrazinyl-N,1-diphenyl-1H-pyrazolo[3,4-d]pyrimidin-6-amine]
A549; [1]
  IC50: 15.7 µM
A549
  HillSlope (best-fit value), A549: -0.3765
  LogIC50 (best-fit value), A549: 1.195
EGFR^WT; [2]
  IC50: 23 nM
EGFR^WT; supplement graph
  HillSlope (best-fit value), EGFR inhibition: -0.3619
EGFR^WT; [3]
  LogIC50 (best-fit value), EGFR inhibition: 1.366
EGFR^WT; [4]
  IC50: 23.2 nM
HCT-116
  IC50: 18.8 µM
  HillSlope (best-fit value), HCT-116: -0.3276
  LogIC50 (best-fit value), HCT-116: 1.274

## COc1ccc(C=NNc2nc(Nc3ccccc3)nc3c2cnn3-c2ccccc2)cc1 [Compound 11a, 4–(2-(4-Methoxybenzylidene)hydrazinyl)-N,1-diphenyl-1H-pyrazolo[3,4-d] pyrimidin-6-amine]
A549; [1]
  IC50: 47.7 µM
A549
  HillSlope (best-fit value), A549: -0.4514
  LogIC50 (best-fit value), A549: 1.678
HCT-116
  IC50: 46.2 µM
  HillSlope (best-fit value), HCT-116: -0.4760
  LogIC50 (best-fit value), HCT-116: 1.664

## Clc1ccc(C=NNc2nc(Nc3ccccc3)nc3c2cnn3-c2ccccc2)cc1 [Compound 11b, 4–(2-(4-Chlorobenzylidene)hydrazinyl)-N,1-diphenyl-1H-pyrazolo[3,4-d]pyrimidin-6-amine]
A549; [1]
  IC50: 75.7 µM
A549
  HillSlope (best-fit value), A549: -0.3813
  LogIC50 (best-fit value), A549: 1.879
HCT-116
  IC50: 75.1 µM
  HillSlope (best-fit value), HCT-116: -0.5652
  LogIC50 (best-fit value), HCT-116: 1.876

## CC(=NNc1nc(Nc2ccccc2)nc2c1cnn2-c1ccccc1)c1ccccc1 [Compound 12a, N,1-Diphenyl-4–(2-(1-phenylethylidene)hydrazinyl)-1H-pyrazolo[3,4-d]pyrimidin-6-amine]
A549; [1]
  IC50: 13.7 µM
A549
  HillSlope (best-fit value), A549: -0.3395
  LogIC50 (best-fit value), A549: 1.137
EGFR^WT; [2]
  IC50: 21 nM
EGFR^WT; supplement graph
  HillSlope (best-fit value), EGFR inhibition: -0.3296
EGFR^WT; [3]
  LogIC50 (best-fit value), EGFR inhibition: 1.321
EGFR^WT; [4]
  IC50: 21 nM
HCT-116
  IC50: 23.3 µM
  HillSlope (best-fit value), HCT-116: -0.4063
  LogIC50 (best-fit value), HCT-116: 1.368

## CC(=NNc1nc(Nc2ccccc2)nc2c1cnn2-c1ccccc1)c1ccc(C)cc1 [Compound 12c, N,1-Diphenyl-4–(2-(1-(p-tolyl)ethylidene)hydrazinyl)-1H-pyrazolo [3,4-d] pyrimidin-6-amine]
A549; [1]
  IC50: 28.8 µM
A549
  HillSlope (best-fit value), A549: -0.4080
  LogIC50 (best-fit value), A549: 1.459
HCT-116
  IC50: 28.7 µM
  anti-proliferative activity against HCT-116 in words: moderate
  HillSlope (best-fit value), HCT-116: -0.4467
  LogIC50 (best-fit value), HCT-116: 1.458

## CCNC(=S)NNc1nc(Nc2ccccc2)nc2c1cnn2-c1ccccc1 [Compound 13a, N-Ethyl-2–(1-phenyl-6-(phenylamino)-1H-pyrazolo[3,4-d]pyrimidin-4-yl) hydrazine-1-carbothioamide]
A549; [1]
  IC50: 43.1 µM
A549
  HillSlope (best-fit value), A549: -0.4011
  LogIC50 (best-fit value), A549: 1.635
HCT-116
  IC50: 27 µM
  anti-proliferative activity against HCT-116 in words: moderate
  HillSlope (best-fit value), HCT-116: -0.4156
  LogIC50 (best-fit value), HCT-116: 1.432

## CCCNC(=S)NNc1nc(Nc2ccccc2)nc2c1cnn2-c1ccccc1 [Compound 13b, 2–(1-Phenyl-6-(phenylamino)-1H-pyrazolo[3,4-d]pyrimidin-4-yl)-N-propyl hydrazine-1-carbothioamide]
A549; [1]
  IC50: 15.4 µM
A549
  HillSlope (best-fit value), A549: -0.3921
  LogIC50 (best-fit value), A549: 1.186
HCT-116
  IC50: 36.4 µM
  HillSlope (best-fit value), HCT-116: -0.3703
  LogIC50 (best-fit value), HCT-116: 1.562

## C#Cc1cccc(Nc2ncnc3cc(OCCOC)c(OCCOC)cc23)c1 [Erlotinib, reference compound]
A549; A549, read-out: IC50 (best-fit value of graph), A549
  IC50: 6.78 µM
A549; [1]
  IC50: 6.77 µM
A549
  HillSlope (best-fit value), A549: -0.3354
  LogIC50 (best-fit value), A549: 0.8309
WI-38
  HillSlope (best-fit value), WI-38: -0.4750
  LogIC50 (best-fit value), WI-38: 1.528
In vitro
  IC50 at 2 days: 33.8 µM
HCT-116
  IC50: 19.2 µM
  HillSlope (best-fit value), HCT-116: -0.3370
  LogIC50 (best-fit value), HCT-116: 1.284
